For this test, the target named is T1, papain (Carica papaya, UniProt P00784).
T1 construct: purchased Sigma Chem. Co
T1 sequence (P00784 134-345): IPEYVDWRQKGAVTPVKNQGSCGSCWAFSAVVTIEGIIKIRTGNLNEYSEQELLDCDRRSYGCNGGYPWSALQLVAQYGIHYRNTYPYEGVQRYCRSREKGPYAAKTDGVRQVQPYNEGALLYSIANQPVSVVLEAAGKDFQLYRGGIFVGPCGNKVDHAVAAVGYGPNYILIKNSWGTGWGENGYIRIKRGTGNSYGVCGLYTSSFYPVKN
As to the kind of experiment: Papain inhibitory activity (milk casein digestion). It counts as biochemical. The settings on record: papain 80 μg/ml 0.5 ml, cysteine, pH 6.8, 1% milk casein, 40° C., 10 minutes. On the procedure: Papain inhibitory activity of the compounds of this invention was assayed as follows: To 0.5 ml of a solution of papain (80 μg/ml, Sigma Chem. Co., 2x cry.), were added 0.25 ml of 40 mM cysteine dissolved in 20 mM disodium ethylenediamine tetraacetic acid solution adjusted pH to 6.8 with sodium hydroxide and 0.25 ml of 33 mM phosphate buffer (pH 6.8) with or without inhibitor. After incubation at 40° C. for 15 minutes, the resulting mixture was added to 5 ml of 1% milk casein solution in the same buffer as described above, and further incubated at 40° C. for 10 minutes. Then the mixture was mixed with 5 ml of 0.44 M trichloroacetic acid solution and followed by filtration with a sheet of Toyo filter paper No. 4. The extinction of the filtrate was read at 280 nm. The percent inhibition was calculated from the formula, 100 x (B-A)/B; wherein B stands for the absorbance without inhibitor and A for the absorbance with inhibitor. The compound Nos. in Table 1 are as defined in Examples as described hereinafter.
Take `CCCCOC(=O)[C@H](CCCNC(=O)OCc1ccccc1)NC(=O)C1OC1C(=O)[O-].[K+]` (stereo partly drawn) [EP-199, N^α -(3-carboxyoxirane-2-carbonyl)-N^δ -carbobenzoxy-L-ornithine n-butyl ester potassium salt]: the “ID50 (amount of inhibitor for 50% inhibition)” value is 0.14 γ. The figure for `CCOC(=O)[C@@H](NC(=O)C1OC1C(=O)OCc1cccc2ccccc12)C(C)C` (some centres unmarked) [EP-219] is 2.12 γ. Regarding `O=C(O)[C@@H]1O[C@H]1C(=O)OC1CCCCCCC1` (relative stereo) [EP-36, cyclooctyl potassium epoxysuccinate], the “ID50 (amount of inhibitor for 50% inhibition)” value is 0.07 γ.

For `C=CCOC(=O)C1OC1C(=O)N[C@@H](Cc1ccc(O)cc1)C(=O)OCc1ccccc1` (stereo partly drawn) [EP-147, N-(3-allyloxycarbonyloxirane-2-carbonyl)-L-tyrosine benzyl ester], the “ID50 (amount of inhibitor for 50% inhibition)” value is listed as 3.40 γ. To `O=C(OCc1ccc(Br)c(Cl)c1)[C@H]1O[C@@H]1C(=O)OCc1ccc(Br)c(Cl)c1` (relative stereo) [EP-125, di-3'-chloro-4'-bromobenzyl epoxysuccinate] belongs 2.90 γ.

For the compound `O=C(OCCCC1CCCC1)[C@@H]1O[C@H]1C(=O)OCCCC1CCCC1` (relative stereo) [EP-63, di-3-cyclopentanepropyl epoxysuccinate], the “ID50 (amount of inhibitor for 50% inhibition)” value is recorded as 54.82 γ.

On to `Cc1cc(C)c(COC(=O)[C@@H]2O[C@H]2C(=O)O)c(C)c1` (relative stereo) [EP-96, 2',4',6'-trimethylbenzyl potassium epoxysuccinate], for which the “ID50 (amount of inhibitor for 50% inhibition)” value was 0.37 γ. Regarding `C[C@H]1CC[C@H](OC(=O)[C@@H]2O[C@H]2C(=O)O[C@H]2CC[C@H](C)CC2)CC1` (relative stereo) [EP-15, di-4'-trans-methylcyclohexyl epoxysuccinate], the “ID50 (amount of inhibitor for 50% inhibition)” value was 1.69 γ.

For the compound `O=C(OCCC1CCCCC1)[C@@H]1O[C@H]1C(=O)OCCC1CCCCC1` (relative stereo) [EP-61, di-2-cyclohexaneethyl epoxysuccinate], the “ID50 (amount of inhibitor for 50% inhibition)” value is 1.18 γ. On to `CC(C)OC(=O)C1OC1C(=O)N[C@@H](CCCCNC(=O)OCc1ccccc1)C(=O)OCc1ccccc1` (stereo partly drawn) [EP-180, N^α -(3-iso-propyloxycarbonyloxirane-2-carbonyl)-N^ε -carbobenzoxy-L-lysine benzyl ester], for which the “ID50 (amount of inhibitor for 50% inhibition)” value is 9.76 γ.

As to `COC(=O)[C@H]1O[C@@H]1C(=O)O` (relative stereo) [EP-135, methyl hydrogen epoxysuccinate], the “ID50 (amount of inhibitor for 50% inhibition)” value is listed as 12.20 γ.

As for `O=C(OCC1CCCC1)[C@@H]1O[C@H]1C(=O)OCC1CCCC1` (relative stereo) [EP-43, dicyclopentanemethyl epoxysuccinate], the “ID50 (amount of inhibitor for 50% inhibition)” value is given as 0.45 γ.

Turning to `COC(=O)[C@H](CCCNC(=O)OCc1ccccc1)NC(=O)C1OC1C(=O)[O-].[K+]` (stereo partly drawn) [EP-198, N^α -(3-carboxyoxirane-2-carbonyl)-N^δ -carbobenzoxy-L-ornithine methyl ester potassium salt], the “ID50 (amount of inhibitor for 50% inhibition)” value is given as 0.15 γ. To `C#CCOC(=O)C1OC1C(=O)N[C@@H](CCCCNC(=O)OCc1ccccc1)C(=O)OCc1ccccc1` (stereo partly drawn) [EP-165, N^α -(3-propargyloxycarbonyloxirane-2-carbonyl)-N^ε -carbobenzoxy-L-lysine benzyl ester] belongs 22.50 γ.

With `CCOC(=O)C1OC1C(=O)N[C@@H](CC(C)C)C(N)=O` (stereo partly drawn) [EP-167, N-(3-ethoxycarbonyloxirane-2-carbonyl)-L-leucine amide], the “ID50 (amount of inhibitor for 50% inhibition)” value was 0.50 γ. To `O=C(O)C1OC1C(=O)OC1CCC(Cl)C1` (stereo not drawn) [EP-30, 3'-cis-chlorocyclopentyl potassium epoxysuccinate] belongs 0.07 γ; to `C=CCOC(=O)[C@H]1O[C@@H]1C(=O)O` (relative stereo) [EP-140, allyl potassium epoxysuccinate], 0.92 γ; to `O=C(O)[C@H]1O[C@@H]1C(=O)OCc1ccc(I)cc1Br` (relative stereo) [EP-120, 2'-bromo-4'-iodobenzyl potassium epoxysuccinate], 0.40 γ. To `CCCCCCCCCCCCOC(=O)[C@H]1O[C@@H]1C(=O)O` (relative stereo) [EP-145, n-dodecyl potassium epoxysuccinate] belongs 0.14 γ; to `CCCOC(=O)[C@H]1O[C@@H]1C(=O)NCC(=O)OCc1ccccc1` (relative stereo) [EP-153, N-(3-n-propyloxycarbonyloxirane-2-carbonyl)-glycine benzyl ester], 17.90 γ; to `CCOC(=O)C1OC1C(=O)N[C@@H](CCC(N)=O)C(=O)OCc1ccccc1` (stereo partly drawn) [EP-168, N-(3-ethoxycarbonyloxirane-2-carbonyl)-L-glutamine benzyl ester], 12.50 γ. As to `O=C(O)C1OC1C(=O)OCC1C=CCC1` (centres unmarked) [EP-72, 2-cyclopentenemethyl potassium epoxysuccinate], the “ID50 (amount of inhibitor for 50% inhibition)” value is on record as 0.08 γ. The figure for `O=C(CNC(=O)C1OC1C(=O)OC1CCCC1Cl)OCc1ccccc1` (stereo not drawn) [EP-213, N-[3-(2'-cis-chlorocyclopentyloxy)-carbonyloxirane-2-carbonyl]-glycine benzyl ester] is 6.75 γ.

As for `O=C(O)[C@H]1O[C@@H]1C(=O)OCCCc1ccccc1` (relative stereo) [EP-132, 3'-phenylpropyl potassium epoxysuccinate], the “ID50 (amount of inhibitor for 50% inhibition)” value is on record as 0.17 γ.

Consider `C[C@H]1CC[C@H](OC(=O)[C@@H]2O[C@H]2C(=O)O)CC1` (relative stereo) [EP-16, 4'-trans-methylcyclohexyl potassium epoxysuccinate], for which the “ID50 (amount of inhibitor for 50% inhibition)” value is 0.08 γ. Regarding `CCOC(=O)C1OC1C(=O)N[C@@H](CC(=O)OCc1ccccc1)C(=O)OCc1ccccc1` (stereo partly drawn) [EP-193, N-(3-ethoxycarbonyloxirane-2-carbonyl)-L-aspartic acid dibenzyl ester], the “ID50 (amount of inhibitor for 50% inhibition)” value is 20.50 γ. The figure for `O=C(OCc1cccc(C(F)(F)F)c1)[C@@H]1O[C@H]1C(=O)OCc1cccc(C(F)(F)F)c1` (relative stereo) [EP-99, di-3'-trifluoromethylbenzyl epoxysuccinate] is 0.50 γ. To `O=C(OCC1C=CCC1)C1OC1C(=O)OCC1C=CCC1` (centres unmarked) [EP-71, di-2-cyclopentenemethyl epoxysuccinate] belongs 0.40 γ; to `CCOC(=O)C1OC1C(=O)N[C@@H](CCCNC(C)=O)C(=O)OCc1ccccc1` (stereo partly drawn) [EP-172, N^α -(3-ethoxycarbonyloxirane-2-carbonyl)-N^δ -acetyl-L-ornithine benzyl ester], 6.20 γ.

As for `CCOC(=O)C1OC1C(=O)N[C@@H](CCCNC(=O)c1ccccc1)C(=O)OCc1ccccc1` (stereo partly drawn) [EP-173, N^α -(3-ethoxycarbonyloxirane-2-carbonyl)-N^δ -benzoyl-L-ornithine benzyl ester], the “ID50 (amount of inhibitor for 50% inhibition)” value was 5.80 γ. To `O=C(OCC1CCCCC1)[C@@H]1O[C@H]1C(=O)OCC1CCCCC1` (relative stereo) [EP-41, dicyclohexanemethyl epoxysuccinate] belongs 0.27 γ. The figure for `CCOC(=O)C1OC1C(=O)N[C@@H](CCC(=O)OCc1ccccc1)C(=O)OCc1ccccc1` (stereo partly drawn) [EP-156, N-(3-ethoxycarbonyloxirane-2-carbonyl)-L-glutamic acid dibenzyl ester] is 13.80 γ; for `COC(=O)[C@H](CCSC)NC(=O)C1OC1C(=O)OCc1ccc2c(c1)OCO2` (stereo partly drawn) [EP-149, N-(3-piperonyloxycarbonyloxirane-2-carbonyl)-L-methionene methyl ester] it is 0.70 γ. In the case of `Cc1cc(C)cc(COC(=O)[C@@H]2O[C@H]2C(=O)O)c1` (relative stereo) [EP-94, 3',5'-dimethylbenzyl potassium epoxysuccinate], the “ID50 (amount of inhibitor for 50% inhibition)” value is 0.27 γ. The figure for `CC(C)[C@H](NC(=O)C1OC1C(=O)OC1CCCC1)C(=O)OCc1ccccc1` (stereo partly drawn) [EP-205, N-(3-cyclopentyloxycarbonyloxirane-2-carbonyl)-L-valine benzyl ester] is 0.82 γ. To `O=C(OCC1CC1)[C@@H]1O[C@H]1C(=O)OCC1CC1` (relative stereo) [EP-39, dicyclopropanemethyl epoxysuccinate] belongs 4.39 γ. With `O=C(O)[C@@H]1O[C@H]1C(=O)OCCC1CCCC1` (relative stereo) [EP-60, 2-cyclopentaneethylpotassium epoxysuccinate], the “ID50 (amount of inhibitor for 50% inhibition)” value is listed as 0.10 γ. The figure for `O=C(OCc1cccc(Cl)c1)[C@@H]1O[C@H]1C(=O)OCc1cccc(Cl)c1` (relative stereo) [EP-109, di-m-chlorobenzyl epoxysuccinate] is 0.50 γ.
